This assay deals with human immunodeficiency virus (HIV). The experiment in a line: HIV viral assay (carried out by Imquest Bioscience). The assay is classed as cell-based. As to the method:
Antiviral compounds may be incorporated into polymers, such as hydrophilic polyurethanes or silicone, for certain applications where antiviral activities are needed.
The compound (0.5 gms) was protonated using dilute hydrochloric acid to a pH of 4 to a total volume of 30 ml. To 5 gms of this solution was added 5 gms of polyvinyl sulfonate (Aldrich, a 25 wt % aqueous solution). A white precipitate of the adduct immediately formed and remained colloidal without settling. This was used as such for an assay carried out by Imquest Bioscience, MD, and high dilutions were studied. […] These and other compounds could be incorporated into the polyurethane plastics of this invention for their slow delivery of antivirals; other viruses could be potentially also be deactivated.

As for `c1c[nH]c(-c2ncc[nH]2)n1` [bimidazole, biimidazole], the “antiviral efficacy (in words)” value is “potent antiviral”.

The values are drawn from patent publication US20080124368A1, “Composition” (priority 2004, published 2008).
